Assay results reported in ChEMBL document CHEMBL4819025, “Natural Piperine Improves Lipid Metabolic Profile of High-Fat Diet-Fed Mice by Upregulating SR-B1 and ABCG8 Transporters” (J Nat Prod, 2021).
Activity calls are given as the source filed them. The rule behind the calls is not given here.

What was measured:
HepG2 [1] = assay: Hypolipidemic activity in human HepG2 cells assessed as reduction in FFA-induced intracellular fat deposition at 10 uM after 24 hrs by Oil Red O staining based assay; type: functional, cell-based
Mus musculus [2] = assay: Effect on ABCG8 protein expression level in high-fat diet fed mouse liver at 25 mg/kg/day by Western blotting analysis; type: functional, organism-based
[3] = Upregulation of ABCG8 protein expression in high-fat diet fed mouse small intestine at 25 mg/kg, po by Western blotting analysis; type: functional
Mus musculus [4] = assay: Hypolipidemic activity in high fat diet-induced ICR mouse hyperlipidemic model assessed as increase in plasma HDL-C level at 25 mg/kg, ig administered once daily for 8 weeks; type: functional, organism-based
Mus musculus [5] = assay: Hypolipidemic activity in normal diet fed ICR mouse assessed as alteration in plasma TC level at 25 mg/kg, ig administered once daily for 8 weeks; type: functional, organism-based
HepG2 [6] = assay: Hypolipidemic activity in human HepG2 cells assessed as reduction in FFA-induced lipid accumulation incubated for 24 hrs by Oil Red O staining based assay; type: functional, cell-based; conditions: dose 10-100 µM
Mus musculus [7] = assay: Upregulation of ABCG8 mRNA expression in high-fat diet fed mouse liver at 25 mg/kg/day by qRT-PCR analysis; type: functional, organism-based
[8] = Toxicity in high fat diet-induced ICR mouse model of hyperlipidemia assessed as change in stomach weight at 25 mg/kg, ig administered once daily for 8 weeks by H and E staining based microscopic analysis; type: organism-based; conditions: in vivo, po, 1344 h
Mus musculus [9] = assay: Hypolipidemic activity in normal diet fed ICR mouse assessed as alteration in plasma LDL-C level at 25 mg/kg, ig administered once daily for 8 weeks; type: functional, organism-based
[10] = Toxicity in high fat diet-induced ICR mouse model of hyperlipidemia assessed as change in heart weight at 25 mg/kg, ig administered once daily for 8 weeks by H and E staining based microscopic analysis; type: organism-based; conditions: in vivo, po, 1344 h
Mus musculus [11] = assay: Effect on ABCG1 protein expression level in high-fat diet fed mouse liver at 25 mg/kg/day by Western blotting analysis; type: functional, organism-based
HepG2 [12] = assay: Cytotoxicity against human HepG2 cells assessed as reduction in cell viability at 1 to 100 uM after 24 hrs by CCK8 assay; type: cell-based; conditions: hepg2, 24 h, dose 1-100 µM
Mus musculus [13] = assay: Hypolipidemic activity in normal diet fed ICR mouse assessed as alteration in plasma HDL-C level at 25 mg/kg, ig administered once daily for 8 weeks; type: functional, organism-based
Mus musculus [14] = assay: Effect on ABCA1 mRNA expression level in high-fat diet fed mouse small intestine at 25 mg/kg, po by qRT-PCR analysis; type: functional, organism-based
[15] = Toxicity in high fat diet-induced ICR mouse model of hyperlipidemia assessed as change in spleen weight at 25 mg/kg, ig administered once daily for 8 weeks by H and E staining based microscopic analysis; type: organism-based; conditions: in vivo, po, 1344 h
Mus musculus [16] = assay: Hypolipidemic activity in high fat diet-induced ICR mouse hyperlipidemic model assessed as reduction in plasma LDL-C level at 25 mg/kg, ig administered once daily for 8 weeks; type: functional; set-up: scale not given: the % may be the effect or the level left
[17] = Toxicity in high fat diet-induced ICR mouse model of hyperlipidemia assessed as change in kidney weight at 25 mg/kg, ig administered once daily for 8 weeks by H and E staining based microscopic analysis; type: organism-based; conditions: in vivo, po, 1344 h
Mus musculus [18] = assay: Effect on ABCG1 mRNA expression level in high-fat diet fed mouse liver at 25 mg/kg/day by qRT-PCR analysis; type: functional, organism-based
[19] = Toxicity in high fat diet-induced mouse model of hyperlipidemia assessed as change in body weight at 25 mg/kg, ig administered once daily for 8 weeks; type: organism-based; conditions: in vivo, po, 1344 h
Mus musculus [20] = assay: Hypolipidemic activity in high fat diet-induced ICR mouse hyperlipidemic model assessed as reduction in plasma TC level at 25 mg/kg, ig administered once daily for 8 weeks; type: functional; set-up: scale not given: the % may be the effect or the level left
[21] = Toxicity in high fat diet-induced mouse model of hyperlipidemia assessed as change in food intake at 25 mg/kg, ig administered once daily for 8 weeks; type: organism-based; conditions: in vivo, po, 1344 h
Mus musculus [22] = assay: Hypolipidemic activity in normal diet fed ICR mouse assessed as reduction in TG level in liver at 25 mg/kg, ig administered once daily for 8 weeks by H and E staining based microscopic analysis; type: functional, organism-based
Mus musculus [23] = assay: Effect on SR-B1 mRNA expression level in high-fat diet fed mouse small intestine at 25 mg/kg, po by qRT-PCR analysis; type: functional, organism-based
Mus musculus [24] = assay: Effect on SR-B1 mRNA expression level in high-fat diet fed mouse liver at 25 mg/kg/day by qRT-PCR analysis; type: functional, organism-based
Mus musculus [25] = assay: Effect on NPC1L1 protein expression level in high-fat diet fed mouse small intestine at 25 mg/kg, po by Western blotting analysis; type: functional, organism-based
[26] = Toxicity in high fat diet-induced ICR mouse model of hyperlipidemia assessed as change in hepatic morphology at 25 mg/kg, ig administered once daily for 8 weeks by H and E staining based microscopic analysis; type: organism-based; conditions: in vivo, po, 1344 h
[27] = Toxicity in high fat diet-induced ICR mouse model of hyperlipidemia assessed as change in liver weight at 25 mg/kg, ig administered once daily for 8 weeks by H and E staining based microscopic analysis; type: organism-based; conditions: in vivo, po, 1344 h
Mus musculus [28] = assay: Hypolipidemic activity in normal diet fed ICR mouse assessed as alteration in plasma TG level at 25 mg/kg, ig administered once daily for 8 weeks; type: functional, organism-based
Mus musculus [29] = assay: Effect on NPC1L1 protein expression level in high-fat diet fed mouse liver at 25 mg/kg/day by Western blotting analysis; type: functional, organism-based
Mus musculus [30] = assay: Effect on SR-B1 protein expression level in high-fat diet fed mouse small intestine at 25 mg/kg, po by Western blotting analysis; type: functional, organism-based
HepG2 [31] = assay: Hypolipidemic activity in human HepG2 cells assessed as reduction in FFA-induced intracellular fat deposition at 50 to 100 uM after 24 hrs by Oil Red O staining based assay; type: functional; set-up: scale not given: the % may be the effect or the level left; conditions: dose 50-100 µM
Mus musculus [32] = assay: Effect on ABCG5 protein expression level in high-fat diet fed mouse small intestine at 25 mg/kg, po by Western blotting analysis; type: functional, organism-based
[33] = Upregulation of […] expression in high-fat diet fed mouse small intestine assessed as fold increase at 25 mg/kg, po by qRT-PCR analysis; type: functional
Mus musculus [34] = assay: Hypolipidemic activity in high fat diet-induced ICR mouse hyperlipidemic model assessed as reduction in fat accumulation in liver at 25 mg/kg, ig administered once daily for 8 weeks by H and E staining based microscopic analysis; type: functional, organism-based
[35] = Toxicity in high fat diet-induced ICR mouse model of hyperlipidemia assessed as change in lung weight at 25 mg/kg, ig administered once daily for 8 weeks by H and E staining based microscopic analysis; type: organism-based; conditions: in vivo, po, 1344 h
Mus musculus [36] = assay: Hypolipidemic activity in high fat diet-induced ICR mouse hyperlipidemic model assessed as reduction in plasma TG level at 25 mg/kg, ig administered once daily for 8 weeks; type: functional; set-up: scale not given: the % may be the effect or the level left
Mus musculus [37] = assay: Effect on NPC1 mRNA expression level in high-fat diet fed mouse liver at 25 mg/kg/day by qRT-PCR analysis; type: functional, organism-based
Mus musculus [38] = assay: Upregulation of SR-B1 protein expression level in high-fat diet fed mouse liver at 25 mg/kg/day by Western blotting analysis; type: functional, organism-based
Mus musculus [39] = assay: Hypolipidemic activity in normal diet fed ICR mouse assessed as reduction in TC level in liver at 25 mg/kg, ig administered once daily for 8 weeks by H and E staining based microscopic analysis; type: functional, organism-based
Mus musculus [40] = assay: Effect on ABCA1 mRNA expression level in high-fat diet fed mouse liver at 25 mg/kg/day by qRT-PCR analysis; type: functional, organism-based
Mus musculus [41] = assay: Effect on ABCG5 protein expression level in high-fat diet fed mouse liver at 25 mg/kg/day by Western blotting analysis; type: functional, organism-based
Mus musculus [42] = assay: Effect on NPC1 mRNA expression level in high-fat diet fed mouse small intestine at 25 mg/kg, po by qRT-PCR analysis; type: functional, organism-based
Mus musculus [43] = assay: Effect on ABCG5 mRNA expression level in high-fat diet fed mouse small intestine at 25 mg/kg, po by qRT-PCR analysis; type: functional, organism-based
Mus musculus [44] = assay: Hypolipidemic activity in high fat diet-induced ICR mouse hyperlipidemic model assessed as reduction in TG level in liver at 25 mg/kg, ig administered once daily for 8 weeks by H and E staining based microscopic analysis; type: functional, organism-based
Mus musculus [45] = assay: Effect on ABCG5 mRNA expression level in high-fat diet fed mouse liver at 25 mg/kg/day by qRT-PCR analysis; type: functional, organism-based
Mus musculus [46] = assay: Effect on ABCA1 protein expression level in high-fat diet fed mouse liver at 25 mg/kg/day by Western blotting analysis; type: functional, organism-based
Mus musculus [47] = assay: Effect on ABCA1 protein expression level in high-fat diet fed mouse small intestine at 25 mg/kg, po by Western blotting analysis; type: functional, organism-based
HepG2 [48] = assay: Hypolipidemic activity in human HepG2 cells assessed as reduction in FFA-induced TG accumulation after 24 hrs; type: functional, cell-based; conditions: dose 10-100 µM
Mus musculus [49] = assay: Hypolipidemic activity in high fat diet-induced ICR mouse hyperlipidemic model assessed as reduction in TC level in liver at 25 mg/kg, ig administered once daily for 8 weeks by H and E staining based microscopic analysis; type: functional, organism-based

Structure (SMILES): CC(C)c1c(C(=O)Nc2ccccc2)c(-c2ccccc2)c(-c2ccc(F)cc2)n1CC[C@@H](O)C[C@@H](O)CC(=O)O
- Activity (HepG2 [1]): Active

Structure (SMILES): O=C(/C=C/C=C/c1ccc2c(c1)OCO2)N1CCCCC1 [PIPERINE]
- Activity (Mus musculus [2]): inactive
- Activity [3]: 80%
- Activity (Mus musculus [4]): Active
- Activity (Mus musculus [5]): inactive
- Activity (HepG2 [6]): Dose-Dependent Effect
- Activity (Mus musculus [7]): Active
- Activity [8]: Non-Toxic
- Activity (Mus musculus [9]): inactive
- Activity [10]: Non-Toxic
- Activity (Mus musculus [11]): inactive
- Activity (HepG2 [12]): Non-Toxic
- Activity (Mus musculus [13]): inactive
- Activity (Mus musculus [14]): inactive
- Activity [15]: Non-Toxic
- Activity (Mus musculus [16]): 34.4%
- Activity [17]: Non-Toxic
- Activity (Mus musculus [18]): inactive
- Activity [19]: Non-Toxic
- Activity (Mus musculus [20]): 27.5%
- Activity [21]: Non-Toxic
- Activity (Mus musculus [22]): inactive
- Activity (Mus musculus [23]): inactive
- Activity (Mus musculus [24]): inactive
- Activity (Mus musculus [25]): inactive
- Activity [26]: Non-Toxic
- Activity [27]: Non-Toxic
- Activity (Mus musculus [28]): inactive
- Activity (Mus musculus [29]): inactive
- Activity (Mus musculus [30]): inactive
- Activity (HepG2 [31]): 36%
- Activity (Mus musculus [32]): inactive
- fold change (FC) [33]: 1.8
- Activity (Mus musculus [34]): Active
- Activity [35]: Non-Toxic
- Activity (Mus musculus [36]): 43.6%
- Activity (Mus musculus [37]): inactive
- Activity (Mus musculus [38]): Active
- Activity (Mus musculus [39]): inactive
- Activity (Mus musculus [40]): inactive
- Activity (Mus musculus [41]): inactive
- Activity (Mus musculus [42]): inactive
- Activity (Mus musculus [43]): inactive
- Activity (Mus musculus [44]): Active
- Activity (Mus musculus [45]): inactive
- Activity (Mus musculus [46]): inactive
- Activity (Mus musculus [47]): inactive
- Activity (HepG2 [48]): Dose-Dependent Effect
- Activity (Mus musculus [49]): Active
